# Earlier results, collected in PMC9901186 (bioRxiv, 2023).
# Test system: NOD1
compound,measurement,value
CCCCCCCCCCCC(=O)N[C@H](CCC(=O)NC(CCCC(N)C(=O)O)C(=O)O)C(=O)O (stereo partly shown) [C12-iE-DAP],greater activation of NOD1-dependent NF-κB reporter relative to iE-DAP,~ 100 fold
